The results in this text go back to patent US7465842B2, “Enantioselective biotransformation for preparation of protein tyrosine kinase inhibitor intermediates” (Agouron Pharmaceuticals, Inc., priority 2004, dated 2008).

Data set [1] can be described thus: Solubility of the precursor in water. In kind it is physicochemical.
Data set [2] is described as follows: Enzyme screening: stereoselective hydrolysis (kinetic resolution) of racemic 1-(2,6-dichloro-3-fluorophenyl)ethyl acetate. It counts as biochemical. Particulars: selective for hydrolysis of (S)-acetate; 5% substrate load, 100 mM potassium phosphate buffer pH 7.2. How it is done: For example, for stereoselective hydrolysis of esters by biocatalysts, a program (Ee2 software-University of Graz) can accurately calculate the E value if the enantiomeric excess (ee) of either the alcohol or the ester at one particular enzymatic conversion are known. The ee value can be obtained, for example, from Equation 1. The [S] and [R] data can be obtained, for example, by HPLC.
The resolution of 1-(2,6-dichloro-3-fluorophenyl)ethyl acetate was carried out as follows. A 96-well plate prepared as described above was thawed for 5 minutes. 80 μL of potassium phosphate buffer (0.1 M, pH 7.2) was then dispensed into the wells using a multi-channel pipette. 10 μL of the substrate stock solution (50 mg/mL acetonitrile) was then added to each well via a multi-channel pipette, and the 96 reactions were incubated at 30° C. and 750 rpm. The reactions were sampled after 16 hours by the transfer of 25 μL of the reaction mixture into a new 96-well plate, which was then quenched by the addition of 150 μL of acetonitrile. The 96-well plate was then centrifuged, and the organic supernatant transferred from each well into another 96-well plate. Sampled reactions were then sealed using a penetrable mat cover and transferred to an HPLC system for analysis. The same plate was used to analyze the samples for both reactivity and enantioselectivity using alternating columns on the HPLC simultaneously. […]

In data set [1], `CC(=O)c1c(Cl)ccc(F)c1Cl` [precursor, 1-(2,6-dichloro-3-fluorophenyl)ethanone] had a solubility of less than 2500 µg/mL.

B1: Subtilisin Carlsberg (protease from Bacillus licheniformis): commercially available hydrolase of the enzyme screening kit (protein, UniProt P00780 106-379, looked up)
Subtilisin Carlsberg: AQTVPYGIPLIKADKVQAQGFKGANVKVAVLDTGIQASHPDLNVVGGASFVAGEAYNTDGNGHGTHVAGTVAALDNTTGVLGVAPSVSLYAVKVLNSSGSGSYSGIVSGIEWATTNGMDVINMSLGGASGSTAMKQAVDNAYAKGVVVVAAAGNSGSSGNTNTIGYPAKYDSVIAVGAVDSNSNRASFSSVGAELEVMAPGAGVYSTYPTNTYATLNGTSMASPHVAGAAALILSKHPNLSASQVRNRLSSTATYLGSSFYYGKGLINVEAAAQ
On to B1, for which the Reactivity result in data set [2] is “Low”.

Broadly, the solubility is the dissolved amount per volume that the medium holds. A high value points to much dissolved substance.
